# Reference: patent US20250228239A1, “MOLECULES HAVING PESTICIDAL UTILITY, AND INTERMEDIATES, COMPOSITIONS, AND PROCESSES, RELATED THERETO” (priority 2024, published 2025)
# How the values were obtained:
# Type in all cases: in vivo
# [1] = system: Beet Armyworm (Spodoptera exigua, LAPHEG); experiment: Bioassays on Beet Armyworm (BAW), 128-well diet tray assay; conditions: Spodoptera exigua; Beet Armyworm; rating class; read-out: BAW
# In short: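 Diet-overlay assay: 50 μg/cm^2 compound applied in 90:10 acetone-water to artificial diet, allowed to dry, then infested with 1–5 L2 larvae/well; 8 wells/compound; covered, vented; 25° C., 14:10 L:D, 5–7 d; % mortality per well, averaged.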
# [2] = system: Cabbage Looper (Trichoplusia ni, TRIPNI); experiment: Bioassays on Cabbage Looper (CL), 128-well diet tray assay; conditions: Trichoplusia ni; Cabbage Looper; rating class; read-out: CL
# In short: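 One to five second-instar larvae per well on artificial diet surface-treated with 50 μg/cm^2 test molecule (applied in 90:10 acetone-water, dried). Held 5–7 days at 25° C, 14:10 light-dark; percent mortality recorded per well and averaged over eight wells.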
# [3] = system: Green Peach Aphid (Myzus persicae, MYZUPE); experiment: Bioassays on Green Peach Aphid (GPA), foliar spray on cabbage seedlings; conditions: 72 h, Green Peach Aphid, rating class, read-out: GPA
# In short: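 Percent control (Abbott-corrected versus solvent-sprayed plants) comes from live-aphid counts three days after treatment at about 25° C. Test solution at 200 ppm was sprayed to runoff onto both leaf surfaces of cabbage seedlings infested a day earlier with 20-50 aphids; four replicate pots.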
# [4] = system: Yellow Fever Mosquito (Aedes aegypti, AEDSAE); conditions: Yellow Fever Mosquito; rating class
# In short: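 Compounds from DMSO master plates (4000 ppm stock) diluted in 90:10 water/acetone, then dispensed into six replicate plates and infested with ~1-day-old Aedes aegypti larvae in liver-powder water. Held covered at room temperature for 3 days; each well scored for larval mortality and graded on a rating scale.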
SMILES,pest or weed control at 50 µg/cm2 [1] [%],pest or weed control at 50 µg/cm2 [2] [%],pest or weed control at 200 µg/mL [3] [%],YFM [4]
"Nc1c(F)ccc(NC(=O)c2cc(NC(=O)[C@H]3[C@H](c4cccc(C(F)(F)F)c4)C3(Cl)Cl)ccc2Cl)c1F [F1666, N-(3-Amino-2,4-difluorophenyl)-2-chloro-5-((1R,3R)-2,2-dichloro-3-(3-(trifluoromethyl)phenyl)cyclopropane-1-carboxamido)benzamide]",50 to 100,50 to 100,80 to 100,B (More than 0 – Less than 80)
"CC(Cl)C(=O)Nc1c(F)ccc(NC(=O)c2cc(NC(=O)[C@H]3[C@H](c4ccc(F)c(C(F)(F)F)c4)C3(Cl)Cl)ccc2Cl)c1F (stereo partly drawn) [F1667, 2-Chloro-N-(3-(2-chloropropanamido)-2,4-difluorophenyl)-5-((1R,3R)-2,2-dichloro-3-(4-fluoro-3-(trifluoromethyl)phenyl)cyclopropane-1-carboxamido)benzamide]",50 to 100,50 to 100,0 to 80,B (More than 0 – Less than 80)
"O=C(Cc1ccccc1)Nc1c(F)ccc(NC(=O)c2cc(NC(=O)[C@H]3[C@H](c4ccc(Cl)c(Cl)c4)C3(Cl)Cl)ccc2Cl)c1F [F1673, 2-Chloro-5-((1R,3R)-2,2-dichloro-3-(3,4-dichlorophenyl)cyclopropane-1-carboxamido)-N-(2,4-difluoro-3-(2-phenylacetamido)phenyl)benzamide]",50 to 100,50 to 100,0 to 80,B (More than 0 – Less than 80)
"CC(=O)Nc1c(F)ccc(NC(=O)c2cc(NC(=O)[C@H]3[C@H](c4cccc(C(F)(F)F)c4)C3(Cl)Cl)ccc2Cl)c1F [F1678, N-(3-Acetamido-2,4-difluorophenyl)-2-chloro-5-((1R,3R)-2,2-dichloro-3-(3-(trifluoromethyl)phenyl)cyclopropane-1-carboxamido)benzamide]",50 to 100,50 to 100,80 to 100,B (More than 0 – Less than 80)
"CC(=O)Nc1c(F)ccc(NC(=O)c2cc(NC(=O)[C@H]3[C@H](c4ccc(F)c(Cl)c4)C3(Cl)Cl)ccc2Cl)c1F [F1694, N-(3-Acetamido-2,4-difluorophenyl)-2-chloro-5-((1R,3R)-2,2-dichloro-3-(3-chloro-4-fluorophenyl)cyclopropane-1-carboxamido)benzamide]",50 to 100,50 to 100,80 to 100,A (80–100)
"O=C(Nc1ccc(F)c(NC(=O)C(F)(F)F)c1F)c1cc(NC(=O)[C@H]2[C@H](c3ccc(F)c(Cl)c3)C2(Cl)Cl)ccc1Cl [F1695, 2-Chloro-5-((1R,3R)-2,2-dichloro-3-(3-chloro-4-fluorophenyl)cyclopropane-1-carboxamido)-N-(2,4-difluoro-3-(2,2,2-trifluoroacetamido)phenyl)benzamide]",50 to 100,50 to 100,80 to 100,B (More than 0 – Less than 80)
"O=C(Nc1ccc(F)c(NC(=O)C(F)(F)C(F)(F)F)c1F)c1cc(NC(=O)[C@H]2[C@H](c3ccc(F)c(Cl)c3)C2(Cl)Cl)ccc1Cl [F1696, 2-Chloro-5-((1R,3R)-2,2-dichloro-3-(3-chloro-4-fluorophenyl)cyclopropane-1-carboxamido)-N-(2,4-difluoro-3-(2,2,3,3,3-pentafluoropropanamido)phenyl)benzamide]",50 to 100,50 to 100,80 to 100,A (80–100)
"O=C(Nc1ccc(F)c(NC(=O)C(F)(F)Cl)c1F)c1cc(NC(=O)[C@H]2[C@H](c3ccc(F)c(Cl)c3)C2(Cl)Cl)ccc1Cl [F1697, 2-Chloro-N-(3-(2-chloro-2,2-difluoroacetamido)-2,4-difluorophenyl)-5-((1R,3R)-2,2-dichloro-3-(3-chloro-4-fluorophenyl)cyclopropane-1-carboxamido)benzamide]",50 to 100,50 to 100,80 to 100,A (80–100)
"O=C(Nc1ccc(F)c(NC(=O)C2CCCO2)c1F)c1cc(NC(=O)[C@H]2[C@H](c3ccc(F)c(Cl)c3)C2(Cl)Cl)ccc1Cl (stereo partly drawn) [F1699, N-(3-(2-Chloro-5-((1R,3R)-2,2-dichloro-3-(3-chloro-4-fluorophenyl)cyclopropane-1-carboxamido)benzamido)-2,6-difluorophenyl)tetrahydrofuran-2-carboxamide]",50 to 100,50 to 100,0 to 80,B (More than 0 – Less than 80)
"O=C(CC(F)(F)F)Nc1c(F)ccc(NC(=O)c2cc(NC(=O)[C@H]3[C@H](c4ccc(F)c(Cl)c4)C3(Cl)Cl)ccc2Cl)c1F [F1701, 2-Chloro-5-((1R,3R)-2,2-dichloro-3-(3-chloro-4-fluorophenyl)cyclopropane-1-carboxamido)-N-(2,4-difluoro-3-(3,3,3-trifluoropropanamido)phenyl)benzamide]",50 to 100,50 to 100,80 to 100,B (More than 0 – Less than 80)
"O=C(CC1CC1)Nc1c(F)ccc(NC(=O)c2cc(NC(=O)[C@H]3[C@H](c4ccc(F)c(Cl)c4)C3(Cl)Cl)ccc2Cl)c1F [F1702, 2-Chloro-N-(3-(2-cyclopropylacetamido)-2,4-difluorophenyl)-5-((1R,3R)-2,2-dichloro-3-(3-chloro-4-fluorophenyl)cyclopropane-1-carboxamido)benzamide]",50 to 100,50 to 100,80 to 100,A (80–100)
"O=C(Nc1ccc(F)c(NC(=O)C(F)(F)C(F)F)c1F)c1cc(NC(=O)[C@H]2[C@H](c3ccc(F)c(Cl)c3)C2(Cl)Cl)ccc1Cl [F1703, 2-Chloro-5-((1R,3R)-2,2-dichloro-3-(3-chloro-4-fluorophenyl)cyclopropane-1-carboxamido)-N-(2,4-difluoro-3-(2,2,3,3-tetrafluoropropanamido)phenyl)benzamide]",50 to 100,50 to 100,80 to 100,A (80–100)
"CCC(=O)Nc1c(F)ccc(NC(=O)c2cc(NC(=O)[C@H]3[C@H](c4ccc(F)c(Cl)c4)C3(Cl)Cl)ccc2Cl)c1F [F1704, 2-Chloro-5-((1R,3R)-2,2-dichloro-3-(3-chloro-4-fluorophenyl)cyclopropane-1-carboxamido)-N-(2,4-difluoro-3-propionamidophenyl)benzamide]",50 to 100,50 to 100,80 to 100,A (80–100)
"CCCC(=O)Nc1c(F)ccc(NC(=O)c2cc(NC(=O)[C@H]3[C@H](c4ccc(F)c(Cl)c4)C3(Cl)Cl)ccc2Cl)c1F [F1705, N-(3-Butyramido-2,4-difluorophenyl)-2-chloro-5-((1R,3R)-2,2-dichloro-3-(3-chloro-4-fluorophenyl)cyclopropane-1-carboxamido)benzamide]",50 to 100,50 to 100,80 to 100,B (More than 0 – Less than 80)
"CC(=O)Nc1c(F)ccc(NC(=O)c2cc(NC(=O)[C@H]3[C@H](c4cc(F)cc(C(F)(F)F)c4)C3(Cl)Cl)ccc2Cl)c1F [F1708, N-(3-Acetamido-2,4-difluorophenyl)-2-chloro-5-((1R,3R)-2,2-dichloro-3-(3-fluoro-5-(trifluoromethyl)phenyl)cyclopropane-1-carboxamido)benzamide]",50 to 100,50 to 100,80 to 100,A (80–100)
"O=C(CC(F)(F)F)Nc1c(F)ccc(NC(=O)c2cc(NC(=O)[C@H]3[C@H](c4cc(F)cc(C(F)(F)F)c4)C3(Cl)Cl)ccc2Cl)c1F [F1710, 2-Chloro-5-((1R,3R)-2,2-dichloro-3-(3-fluoro-5-(trifluoromethyl)phenyl)cyclopropane-1-carboxamido)-N-(2,4-difluoro-3-(3,3,3-trifluoropropanamido)phenyl)benzamide]",50 to 100,50 to 100,0 to 80,A (80–100)
"O=C(Nc1ccc(F)c(NC(=O)C(F)F)c1F)c1cc(NC(=O)[C@H]2[C@H](c3cc(F)cc(C(F)(F)F)c3)C2(Cl)Cl)ccc1Cl [F1711, 2-Chloro-5-((1R,3R)-2,2-dichloro-3-(3-fluoro-5-(trifluoromethyl)phenyl)cyclopropane-1-carboxamido)-N-(3-(2,2-difluoroacetamido)-2,4-difluorophenyl)benzamide]",50 to 100,50 to 100,80 to 100,A (80–100)
